Source: patent publication US12247032B2, “Substituted pyrazolo[1,5-a]pyrimidines as inhibitors of JAK kinases” (Genentech, Inc., priority 2019, dated 2025)
Like-named read-outs stand apart in the source and are kept apart here.

Assays:
[1] = system: JAK1 (IL-13-stimulated STAT6 phosphorylation in BEAS-2B cells); assay: P-STAT6 BEAS-2B+IL-13 cell assay; type: cell-based, human; conditions: 1 hour compound, IL-13 15 minutes, IC50 by four-parameter fit, read-out: Cellular JAK1 PSTAT6 BEAS2B + IL13
Method: In order to study the effect of JAK1 inhibitors in a cell line that is relevant to the cell biology of human asthma, an IL-13-stimulated STAT6 phosphorylation assay in the human lung bronchial epithelial BEAS-2B cell line was developed.
BEAS-2B cells (ATCC® CRL-9609™) were grown in Bronchial Epithelial Growth Medium (BEGM) (Lonza Catalog No. CC-3170; Walkersville, MD; or PromoCell Catalog No. C-21060; Heidelberg, Germany). Test compound stock solutions (0.5 mM in DMSO) were serially diluted 1:2 in DMSO to generate a 10-point concentration curve (at 500× test concentration), which was further diluted by a 50-fold dilution step in BEGM to generate a 10× concentration curve (in 2% DMSO). Cells were plated at 100,000 cells/well in 200 μL of BEGM in 96-well plates and incubated for 48 hours at 37° C. in a humidified incubator. Medium was aspirated from the cells and replaced with 70 μL of fresh BEGM. Diluted test compound (10 μL; or 2% DMSO in assay medium) was added to the cells, and the plates were incubated for 1 hour at 37° C. in a humidified incubator. Twenty μL of 250 ng/mL human recombinant IL-13 (Bio Techne Catalog No. 213-ILB) was then added to the cells and incubated for 15 minutes at 37° C. Medium was aspirated from the cells and 60 μL of ice-cold 1×cell lysis buffer (Cell Signaling Technologies; Catalog No. 9803S) containing 1 mM PMSF was added to the cells. Assay plates were incubated at −80° C. for at least 1 hour. P-STAT6 was measured by coating GAR plates (MSD; Catalog No. L45RA-1) with rabbit anti-human total STAT6 antibody (Cell Signaling Technologies; Catalog No. 9362S), incubating the cell lysates in the coated plates overnight at 4° C., and then detecting with mouse anti-phospho-STAT6 (Tyr641) Clone 16E12 antibody (Millipore; Catalog No. 05-590, custom labeled by MSD with SULFO-tag) using standard MSD plate processing, washing, and detection protocols. Plates were read on the MESO SECTOR S600.
Data analysis was performed by subtracting negative control values from all wells and determining percent of control using the positive control values; the IC50 was determined with a four-parameter logistic fit model as shown in Equation 4.

[2] = target: T1, recombinant human JAK1 kinase domain protein (Residues 854-1154) (Homo sapiens, UniProt P23458); assay: JAK1 biochemical assay (microfluidic mobility shift, peptide phosphorylation); conditions: 25 μM ATP, 1 nM total JAK1; Ki calculated from Ki app (tight-binding, competitive); read-out: Biochem JAK1 Ki
T1 construct: human JAK1 kinase domain protein (Residues 854-1154); purchased Proteros Biostructures GmbH (Martinsried, Germany); host or cells: insect cells
Method: (§1) The in vitro biochemical assays quantify JAK-catalyzed phosphorylation of a synthetic peptide, as detected using a LabChip® EZ Reader II microfluidic mobility shift instrument (PerkinElmer; Waltham, MA). The substrate peptide Y-1B has the sequence 5-FAM-VALVDGYFRLTT-NH2. Y-1B is fluorescently labeled on the N-terminus with 5-FAM (5-carboxyfluorescein) and contains a single tyrosine residue (Y) that can be phosphorylated by JAK activity. The substrate peptide stock is prepared in DMSO at 5 mM. Purified recombinant human JAK1 kinase domain protein (Residues 854-1154) was expressed in insect cells and procured from Proteros Biostructures GmbH (Martinsried, Germany). Recombinant human JAK2 kinase domain protein (Residues 812-1132) was expressed in insect cells and purified at Genentech, Inc. (South San Francisco, CA).
(§2) The kinase reaction mixtures contained 100 mM 4-(2-hydroxyethyl)-1-piperazineethanesulfonic acid (HEPES) buffer (pH 7.2), 10 mM magnesium chloride, 0.015% Brij® 35, 4 mM dithiothreitol, 1.5 μM Y-1B peptide substrate, 25 μM adenosine triphosphate (ATP), 1 nM total JAK1 or 0.2 nM total JAK2, and up to 1000 nM test compound in a final concentration of 2% (volume to volume [v/v]) DMSO. In each titration experiment, test compound was tested in duplicate at each of the twelve concentrations. Blank reactions contained ATP, peptide, and DMSO, but no JAK or test compound, whereas uninhibited control reactions contained ATP, peptide, JAK, and DMSO, but no test compound.
(§3) Peptide plus ATP mixture (24 μL) was added to 1 μL of test compound in DMSO (or DMSO alone). The reactions were initiated by adding 25 μL of JAK enzyme to the inhibitor/peptide/ATP mixture before thoroughly mixing the resultant solution. Reactions were incubated at room temperature (22° C.-23° C.) in a final volume of 50 μL per well in 384-well plates. After a 30-minute incubation, the reactions were stopped by adding 25 μL of 150 mM ethylenediaminetetraacetic acid in 100 mM HEPES buffer (pH 7.2) containing 0.015% Brij 35 to each well.
(§4) In each reaction, the residual Y-1B substrate and the phospho-peptide product generated were separated using the EZ Reader 1 instrument. Electrophoretic separation of molecules of product from molecules of substrate was achieved using downstream and upstream voltages of −500 and −2600 V, respectively, at an operating pressure of −1.3 psi. The 5-FAM group present on both the substrate and product peptides was excited at 488 nm, the fluorescence was detected at 530 nm, and the peak heights were reported.
(§5) The extent (or percent) of conversion of substrate to product was calculated from the corresponding peak heights in the electropherogram using HTS Well Analyzer software, Version 5.2 (PerkinElmer), and the following equation (Equation 1): % conversion=[P[…](S+P)]×100 Equation 1 where S and P represent the peak heights of the substrate and product, respectively. After any baseline signal from blank wells containing no JAK was subtracted from the signal of all test wells, the % conversion data were converted to fractional activity as shown in Equation 2, where νi and νo are the % conversion in the presence and absence of test compound, respectively. The % conversion observed in the uninhibited control reactions containing JAK and DMSO vehicle, but no test compound, was defined to have fractional activity=1 (with no inhibitor present, νi=νo), whereas blank wells with no JAK were defined as having fractional activity=0. Fractional activity was plotted against test compound concentration and the data were fitted using XLfit software (IDBS; Guildford, United Kingdom) to a tight-binding apparent inhibition constant (Ki^app) quadratic equation (see Equation 2) (Williams J W, Morrison J F. The kinetics of reversible tight-binding inhibition. Methods Enymol 1979; 63:437-67), which was used to calculate fractional activity and Ki^app […]

[3] = target: T2, Recombinant human JAK2 kinase domain protein (Residues 812-1132) (Homo sapiens, UniProt O60674); assay: JAK2 biochemical assay (microfluidic mobility shift, peptide phosphorylation); conditions: 25 μM ATP, 0.2 nM total JAK2; Ki calculated from Ki app (tight-binding, competitive); read-out: Biochem JAK2 Ki
T2 construct: human JAK2 kinase domain protein (Residues 812-1132); made in house; host or cells: insect cells
Method: as §1, §2, §3, §4, §5

T1 sequence (P23458 854-1154): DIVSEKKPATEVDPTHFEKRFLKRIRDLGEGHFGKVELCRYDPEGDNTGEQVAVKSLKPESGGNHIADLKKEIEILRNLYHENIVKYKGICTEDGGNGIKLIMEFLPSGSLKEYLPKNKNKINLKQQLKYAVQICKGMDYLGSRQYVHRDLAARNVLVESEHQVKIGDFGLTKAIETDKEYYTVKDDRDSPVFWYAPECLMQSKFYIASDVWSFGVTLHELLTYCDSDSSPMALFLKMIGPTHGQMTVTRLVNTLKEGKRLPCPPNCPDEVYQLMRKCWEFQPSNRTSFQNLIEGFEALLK
T2 sequence (O60674 812-1132): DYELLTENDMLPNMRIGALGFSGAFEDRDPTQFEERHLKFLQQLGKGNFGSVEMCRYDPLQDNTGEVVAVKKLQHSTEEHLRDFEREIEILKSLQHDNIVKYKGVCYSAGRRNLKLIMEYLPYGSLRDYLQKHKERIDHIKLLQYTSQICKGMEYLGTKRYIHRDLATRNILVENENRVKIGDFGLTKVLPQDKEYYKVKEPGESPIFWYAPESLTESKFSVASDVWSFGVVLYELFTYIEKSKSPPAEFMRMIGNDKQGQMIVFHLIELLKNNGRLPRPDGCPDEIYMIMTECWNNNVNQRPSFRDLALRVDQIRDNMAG

SMILES	IC50 ([1]; Homo sapiens, BEAS-2B, 1 h)	Ki [2]	Ki [3]	IC50 [1]
CN(C)[C@H]1C[C@H](n2nnc(Cn3cc(NC(=O)c4cnn5cccnc45)c(-c4cc(OC(F)F)ccc4OC(F)F)n3)n2)C1 [Example 64, N-[3-[2,5-bis(difluoromethoxy)phenyl]-1-[[2-[3-(dimethylamino)cyclobutyl]tetrazol-5-yl]methyl]pyrazol-4-yl]pyrazolo[1,5-a]pyrimidine-3-carboxamide; formic acid]	17 nM	0.87 nM	0.55 nM	–
CN1CCN(CCn2nnnc2Cn2cc(NC(=O)c3cnn4cccnc34)c(-c3cc(Cl)ccc3OC(F)F)n2)CC1 [Example 42, N-[3-[5-chloro-2-(difluoromethoxy)phenyl]-1-[[1-[2-(4-methylpiperazin-1-yl)ethyl]tetrazol-5-yl]methyl]pyrazol-4-yl]pyrazolo[1,5-a]pyrimidine-3-carboxamide]	16 nM	0.33 nM	0.22 nM	–
CN(C)C1CCC(N2CC(n3nnc(Cn4cc(NC(=O)c5cnn6cccnc56)c(-c5cc(OC(F)F)ccc5OC(F)F)n4)n3)C2)C1 (single isomer, unassigned) [Example 74, N-[3-[2,5-bis(difluoromethoxy)phenyl]-1-[[2-[1-[3-(dimethylamino)cyclopentyl]azetidin-3-yl]tetrazol-5-yl]methyl]pyrazol-4-yl]pyrazolo[1,5-a]pyrimidine-3-carboxamide]	–	0.55 nM	0.47 nM	93 nM
CN1CCC[C@H]1Cn1nnnc1Cn1cc(NC(=O)c2cnn3cccnc23)c(-c2cc(OC(F)F)ccc2OC(F)F)n1 (racemic) [Example 54, N-[3-[2,5-bis(difluoromethoxy)phenyl]-1-[[1-[[rac-(2S)-1-methylpyrrolidin-2-yl]methyl]tetrazol-5-yl]methyl]pyrazol-4-yl]pyrazolo[1,5-a]pyrimidine-3-carboxamide]	51 nM	0.75 nM	0.45 nM	–
CN(C)CCCN1CC(n2nnc(Cn3cc(NC(=O)c4cnn5cccnc45)c(-c4cc(Cl)ccc4OC(F)F)n3)n2)C1 [Example 62, N-[3-[5-chloro-2-(difluoromethoxy)phenyl]1-[[2-[1-[3-(dimethylamino)propyl]azetidin-3-yl]tetrazol-5-yl]methyl]pyrazol-4-yl]pyrazolo[1,5-a]pyrimidine-3-carboxamide]	38 nM	0.66 nM	0.38 nM	–
CN1CCC[C@@H]1Cn1nnc(Cn2cc(NC(=O)c3cnn4cccnc34)c(-c3cc(OC(F)F)ccc3OC(F)F)n2)n1 (stereo in doubt) [Example 49, N-[3-[2,5-bis(difluoromethoxy)phenyl]-1-[[2-[[rac-(2R)-1-methylpyrrolidin-2-yl]methyl]tetrazol-5-yl]methyl]pyrazol-4-yl]pyrazolo[1,5-a]pyrimidine-3-carboxamide]	19 nM	0.53 nM	0.41 nM	–
CN1CC(N(C)CCn2nnnc2Cn2cc(NC(=O)c3cnn4cccnc34)c(-c3cc(OC(F)F)ccc3OC(F)F)n2)C1 [Example 45, N-[3-[2,5-bis(difluoromethoxy)phenyl]-1-[[1-[2-[methyl-(1-methylazetidin-3-yl)amino]ethyl]tetrazol-5-yl]methyl]pyrazol-4-yl]pyrazolo[1,5-a]pyrimidine-3-carboxamide]	81 nM	0.81 nM	0.65 nM	–
CN1CCN(CCn2nnc(Cn3cc(NC(=O)c4cnn5cccnc45)c(-c4cc(Cl)ccc4OC(F)F)n3)n2)CC1 [Example 39, N-[3-[5-chloro-2-(difluoromethoxy)phenyl]-1-[[2-[2-(4-methylpiperazin-1-yl)ethyl]tetrazol-5-yl]methyl]pyrazol-4-yl]pyrazolo[1,5-a]pyrimidine-3-carboxamide]	36 nM	1.3 nM	0.69 nM	–
O=C(Nc1cn(Cc2nnn(CCO)n2)nc1-c1cc(Cl)ccc1OC(F)F)c1cnn2cccnc12 [Example 1, N-[3-[5-chloro-2-(difluoromethoxy)phenyl]-1-[[2-(2-hydroxyethyl)tetrazol-5-yl]methyl]pyrazol-4-yl]pyrazolo[1,5-a]pyrimidine-3-carboxamide]	6.7 nM	0.15 nM	0.089 nM	–
CN(C)CC(F)CN1CC(n2nnc(Cn3cc(NC(=O)c4cnn5cccnc45)c(-c4cc(OC(F)F)ccc4OC(F)F)n3)n2)C1 (single isomer, unassigned) [Example 84, N-[3-[2,5-bis(difluoromethoxy)phenyl]-1-[[2-[1-[3-(dimethylamino)-2-fluoro-propyl]azetidin-3-yl]tetrazol-5-yl]methyl]pyrazol-4-yl]pyrazolo[1,5-a]pyrimidine-3-carboxamide]	–	0.55 nM	0.5 nM	20 nM
CN1CC(Cn2nnc(Cn3cc(NC(=O)c4cnn5cccnc45)c(-c4cc(OC(F)F)ccc4OC(F)F)n3)n2)C1 [Example 32, N-[3-[2,5-bis(difluoromethoxy)phenyl]-1-[[2-[(1-methylazetidin-3-yl)methyl]tetrazol-5-yl]methyl]pyrazol-4-yl]pyrazolo[1,5-a]pyrimidine-3-carboxamide]	22 nM	0.72 nM	0.62 nM	–
